Assay results reported in article PMC10033419, “Blocking NS3–NS4B interaction inhibits dengue virus in non-human primates” (Nature, 2023).
“And” between values parts separate entries of the source, which are not always exact repeats. Identical values can stand only once. Like-named read-outs stand apart in the source and are kept apart here.

Test system: DENV-2 RL
Assay: microbe, parasite or virus in culture
Assay type: cell-based

COc1cc(N[C@H](C(=O)c2c[nH]c3ccc(OC(F)(F)F)cc23)c2ccc(Cl)cc2OC)cc(S(C)(=O)=O)c1 [JNJ-1802]
EC50 (A sample, passage 20, read-out: EC50 values Ave): 32.2 nM
EC50 (A sample, passage 21, read-out: EC50 values Ave): 32.2 nM
EC50 (A sample, passage 22, read-out: EC50 values Ave): 32.2 nM
EC50 (A sample, passage 23, read-out: EC50 values Ave): 32.2 nM
EC50 (B sample, passage 29, read-out: EC50 values Ave): 32.2 nM
EC50 (B sample, passage 30, read-out: EC50 values Ave): 32.2 nM
EC50 (Dengue virus, DENV2, Vero, read-out: EC50 by microscopic evaluation of CPE, experiment A, passage 0): 0.06 nM
EC50 (Dengue virus, DENV2, Vero, read-out: EC50 by microscopic evaluation of CPE, experiment A, passage 5): 0.06 nM
EC50 (Dengue virus, DENV2, Vero, read-out: EC50 by microscopic evaluation of CPE, experiment A, passage 10): 0.25 nM
EC50 (Dengue virus, DENV2, Vero, read-out: EC50 by microscopic evaluation of CPE, experiment A, passage 15): 1 nM
EC50 (Dengue virus, DENV2, Vero, read-out: EC50 by microscopic evaluation of CPE, experiment A, passage 25): 64 nM
EC50 (Dengue virus, DENV2, Vero, read-out: EC50 by microscopic evaluation of CPE, experiment A, passage 30): 260 nM
EC50 (Dengue virus, DENV2, Vero, read-out: EC50 by microscopic evaluation of CPE, experiment A, passage 35): 260 nM
EC50 (Dengue virus, DENV2, Vero, read-out: EC50 by microscopic evaluation of CPE, experiment A, passage 40): 1290 nM
EC50 (Dengue virus, DENV2, Vero, read-out: EC50 by microscopic evaluation of CPE, experiment A, passage 42): 1290 nM
EC50 (Dengue virus, DENV2, Vero, read-out: EC50 by microscopic evaluation of CPE, experiment B, passage 0): 0.06 nM
EC50 (Dengue virus, DENV2, Vero, read-out: EC50 by microscopic evaluation of CPE, experiment B, passage 5): 0.06 nM
EC50 (Dengue virus, DENV2, Vero, read-out: EC50 by microscopic evaluation of CPE, experiment B, passage 20): 0.5 nM
EC50 (Dengue virus, DENV2, Vero, read-out: EC50 by microscopic evaluation of CPE, experiment B, passage 25): 4 nM
EC50 (Dengue virus, DENV2, Vero, read-out: EC50 by microscopic evaluation of CPE, experiment B, passage 35): 80 nM
EC50 (Dengue virus, DENV2, Vero, read-out: EC50 by microscopic evaluation of CPE, experiment B, passage 45): 640 nM
EC50 (Dengue virus, DENV2, Vero, read-out: EC50 by microscopic evaluation of CPE, experiment B, passage 50): 1290 nM
EC50 (Dengue virus, DENV2, Vero, read-out: EC50 values Ave, A sample, passage 1): 3.7e-05 µg/mL and 0.063 nM
EC50 (Dengue virus, DENV2, Vero, read-out: EC50 values Ave, A sample, passage 2): 3.7e-05 µg/mL and 0.063 nM
EC50 (Dengue virus, DENV2, Vero, read-out: EC50 values Ave, A sample, passage 3): 3.7e-05 µg/mL and 0.063 nM
EC50 (Dengue virus, DENV2, Vero, read-out: EC50 values Ave, A sample, passage 4): 3.7e-05 µg/mL and 0.063 nM
EC50 (Dengue virus, DENV2, Vero, read-out: EC50 values Ave, A sample, passage 5): 3.7e-05 µg/mL and 0.063 nM
EC50 (Dengue virus, DENV2, Vero, read-out: EC50 values Ave, A sample, passage 6): 0.126 nM
EC50 (Dengue virus, DENV2, Vero, read-out: EC50 values Ave, A sample, passage 7): 3.7e-05 µg/mL and 0.063 nM
EC50 (Dengue virus, DENV2, Vero, read-out: EC50 values Ave, A sample, passage 8): 3.7e-05 µg/mL and 0.063 nM
EC50 (Dengue virus, DENV2, Vero, read-out: EC50 values Ave, A sample, passage 9): 0.126 nM
EC50 (Dengue virus, DENV2, Vero, read-out: EC50 values Ave, A sample, passage 10): 0.000146 µg/mL and 0.251 nM
EC50 (Dengue virus, DENV2, Vero, read-out: EC50 values Ave, A sample, passage 11): 0.000146 µg/mL and 0.251 nM
EC50 (Dengue virus, DENV2, Vero, read-out: EC50 values Ave, A sample, passage 12): 0.000146 µg/mL and 0.251 nM
EC50 (Dengue virus, DENV2, Vero, read-out: EC50 values Ave, A sample, passage 13): 0.000293 µg/mL and 0.503 nM
EC50 (Dengue virus, DENV2, Vero, read-out: EC50 values Ave, A sample, passage 14): 1.01 nM
EC50 (Dengue virus, DENV2, Vero, read-out: EC50 values Ave, A sample, passage 15): 1.01 nM
EC50 (Dengue virus, DENV2, Vero, read-out: EC50 values Ave, A sample, passage 16): 0.00117 µg/mL and 2.01 nM
EC50 (Dengue virus, DENV2, Vero, read-out: EC50 values Ave, A sample, passage 17): 0.00234 µg/mL and 4.02 nM
EC50 (Dengue virus, DENV2, Vero, read-out: EC50 values Ave, A sample, passage 18): 0.00469 µg/mL and 8.04 nM
EC50 (Dengue virus, DENV2, Vero, read-out: EC50 values Ave, A sample, passage 24): 0.0375 µg/mL and 64.3 nM
EC50 (Dengue virus, DENV2, Vero, read-out: EC50 values Ave, A sample, passage 25): 0.0375 µg/mL and 64.3 nM
EC50 (Dengue virus, DENV2, Vero, read-out: EC50 values Ave, A sample, passage 26): 129 nM
EC50 (Dengue virus, DENV2, Vero, read-out: EC50 values Ave, A sample, passage 27): 0.15 µg/mL and 257 nM
EC50 (Dengue virus, DENV2, Vero, read-out: EC50 values Ave, A sample, passage 28): 0.15 µg/mL and 257 nM
EC50 (Dengue virus, DENV2, Vero, read-out: EC50 values Ave, A sample, passage 29): 0.15 µg/mL and 257 nM
EC50 (Dengue virus, DENV2, Vero, read-out: EC50 values Ave, A sample, passage 30): 0.15 µg/mL and 257 nM
EC50 (Dengue virus, DENV2, Vero, read-out: EC50 values Ave, A sample, passage 31): 129 nM
EC50 (Dengue virus, DENV2, Vero, read-out: EC50 values Ave, A sample, passage 32): 129 nM
EC50 (Dengue virus, DENV2, Vero, read-out: EC50 values Ave, A sample, passage 33): 0.15 µg/mL and 257 nM
EC50 (Dengue virus, DENV2, Vero, read-out: EC50 values Ave, A sample, passage 34): 0.15 µg/mL and 257 nM
EC50 (Dengue virus, DENV2, Vero, read-out: EC50 values Ave, A sample, passage 35): 0.15 µg/mL and 257 nM
EC50 (Dengue virus, DENV2, Vero, read-out: EC50 values Ave, A sample, passage 36): 0.15 µg/mL and 257 nM
EC50 (Dengue virus, DENV2, Vero, read-out: EC50 values Ave, A sample, passage 37): 0.3 µg/mL and 515 nM
EC50 (Dengue virus, DENV2, Vero, read-out: EC50 values Ave, A sample, passage 38): 0.3 µg/mL and 515 nM
EC50 (Dengue virus, DENV2, Vero, read-out: EC50 values Ave, A sample, passage 39): 1290 nM
EC50 (Dengue virus, DENV2, Vero, read-out: EC50 values Ave, A sample, passage 40): 1290 nM
EC50 (Dengue virus, DENV2, Vero, read-out: EC50 values Ave, A sample, passage 41): 1290 nM
EC50 (Dengue virus, DENV2, Vero, read-out: EC50 values Ave, A sample, passage 42 (END)): 1290 nM
EC50 (Dengue virus, DENV2, Vero, read-out: EC50 values Ave, B sample, passage 1): 3.7e-05 µg/mL and 0.063 nM
EC50 (Dengue virus, DENV2, Vero, read-out: EC50 values Ave, B sample, passage 2): 3.7e-05 µg/mL and 0.063 nM
EC50 (Dengue virus, DENV2, Vero, read-out: EC50 values Ave, B sample, passage 3): 3.7e-05 µg/mL and 0.063 nM
EC50 (Dengue virus, DENV2, Vero, read-out: EC50 values Ave, B sample, passage 4): 3.7e-05 µg/mL and 0.063 nM
EC50 (Dengue virus, DENV2, Vero, read-out: EC50 values Ave, B sample, passage 5): 3.7e-05 µg/mL and 0.063 nM
EC50 (Dengue virus, DENV2, Vero, read-out: EC50 values Ave, B sample, passage 6): 0.126 nM
EC50 (Dengue virus, DENV2, Vero, read-out: EC50 values Ave, B sample, passage 7): 0.126 nM
